The source of these data is patent US20080132568A1, “COMPOUNDS WITH ANTI-ANDROGENIC ACTIVITY AND THE USE THEREOF” (priority 2006, published 2008).

What all share (type): cell-based, human
One assay has as its system PSA. The assay can be described thus: Prostate specific antigen analysis, LNCaP medium. The conditions noted are these: for R1881-induced PSA release / PSA levels in medium: 10 to 40 μM. The protocol:
Prostate specific antigen analysis: LNCaP cells were cultured in 96-well plates (Costar) at 5,000 cells per well in DMEM/CSS 1 day before treatment. Forty-eight hours after treatment, media levels of PSA released from LNCaP cells were measured using a PSA Enzyme Immunoassay Test Kit (BioCheck, Inc., Foster City, Calif.) according to manufacturer's instructions supplied with the kit. PSA levels were normalized to cell numbers as determined using the CyQUANT NF Cell Proliferation Assay Kit (Invitrogen), as described previously.

In assay [1] the test system is LAPC4 prostate cancer cells. The assay is described as follows: CyQUANT cell proliferation assay, LAPC4. The conditions noted are these: 10 to 50 μM, 4 days. The protocol: (§1) Cell culture and treatment protocols: The LNCaP prostate cancer cells used in these studies were acquired from American Type Culture Collection (Manassas, Va.). All cell lines were maintained in Dulbecco's modified Eagle's medium (DMEM; Invitrogen, Carlsbad, Calif.) containing 5% heat-inactivated fetal calf serum (FCS; Sigma, St. Louis, Mo.) with streptomycin-penicillin antibiotics (designated DMEM/FCS) in a 5% CO2 incubator at 37° C. LAPC4 prostate cancer cells adapted to growth in DMEM and 5% FCS were acquired from George Wilding (University of Wisconsin Paul P. Carbone Comprehensive Cancer Center). For experiments evaluating androgenic responses, cells were cultured in DMEM containing 4% charcoal-stripped FCS and 1% unstripped FCS (designated DMEM/CSS). […]
(§2) Cell proliferation and viability assays: Cell numbers were determined using a hemacytometer. Relative cell growth changes were determined using cells plated in 96-well tissue culture plates using the CyQUANT NF Cell Proliferation Assay Kit (Invitrogen) according to manufacturer's instructions. Cell viability was measured using trypan blue exclusion and quantified using light microscopy and hemacytometry. Additionally, cell viability was measured by propidium iodide exclusion using flow cytometry (FACScan; BD Biosciences, San Jose, Calif.) after VE and ATQ treatment.

For the next assay, the system named is LNCaP cells. The assay can be described thus: LNCaP viability by propidium iodide exclusion and flow cytometry. The conditions noted are these: 30 μM, 4 days. The protocol:
as §1, §2

Assay [2] deals with AR protein. The assay is described as follows: Immunoblot analysis of AR protein, LNCaP. The conditions noted are these: 4 days. The protocol:
(§3) Immunoblot analysis: LNCaP or LAPC4 prostate cancer cells were plated at a density of 1×10^6 cells per 100 mm cell culture plate in 10 ml of DMEM/CSS and maintained in incubators at 37° C. in 5% CO2. […] Cell extracts were stored at −80° C. until analysis. Total protein (25 μg) from cell extracts were electrophoresed on 7.5% SDS-polyacrylamide gels and transferred to Immobilon-P membranes (Millipore Corp., Bedford, Mass.) using a GENIE wet transfer system (Idea Scientific, Minneapolis, Minn.). Membranes were blocked in Tris-buffered saline containing 5% nonfat dry milk and then incubated with mouse anti-AR (441) monoclonal antibody (Santa Cruz Biotechnology, Santa Cruz, Calif.) or mouse anti-actin antibody (A5441; Sigma). After washing, membranes were incubated with a secondary horseradish peroxidase-conjugated goat anti-mouse IgG (Biomeda, Foster City, Calif.) and analyzed using Western Lightening Chemiluminescence Reagent Plus (Boston, Mass.) on a Kodak Image Station 4000MM (Rochester, N.Y.). Band intensities were determined using Kodak Molecular Imaging Software.

The test system of assay [3] is AR mRNA. The assay is described as follows: AR mRNA expression by qPCR, LNCaP. Conditions: 4 days. The protocol:
(§4) Messenger RNA expression analysis: Total RNA was extracted from cells using TRIzol Reagent (Invitrogen, Carlsbad, Calif.) and cDNA was prepared from total RNA using the High Capacity cDNA Reverse Transcription Kit (Applied Biosystems, Foster City, Calif.). Quantititive PCR was performed for AR expression using an Applied Biosystems 7900HT Fast Real-Time PCR System (Carlsbad, Calif.) and QuantiTect Primers Assays (Qiagen Inc., Valencia, Calif.) for AR and GAPDH mRNA.

For assay [4], the system named is androgen-sensitive MMTV promoter. The assay can be described thus: Promoter activation assay (MMTV/luciferase) in LNCaP. Conditions: 30 μM, 48 hours. The protocol:
Promoter activation assay: LNCaP and LAPC4 prostate carcinoma cell lines were cultured in 12- or 24-well cell culture plates (Costar) in DMEM/CSS 2 to 3 days before transfection. Androgen-induced transcriptional activation was determined using a reporter construct with an MMTV promoter that regulates the expression of luciferase (Thompson T A et al., In Vitro Cell. Dev. Biol. 1993, 29A:165-170). LNCaP cells were transfected using the calcium phosphate precipitation method with an MMTV/luciferase plasmid. LAPC4 cells were transfected with an MMTV/luciferase plasmid using the FuGENE 6 Transfection Reagent (Roche Applied Science), according to the manufacturer's instructions. Twenty-four hours after transfection, cells were treated with R1881 with or without test reagents at the specified concentrations. Cell extracts were acquired 24 to 48 hours after treatment in 100 μL of Cell Culture Lysis Reagent (Promega, Madison, Wis.). Luciferase activity was measured using the Luciferase Assay Substrate (Promega, Madison, Wis.) according to instructions and read on a TD-20/20 Luminometer (Turner Designs, Sunnyvale, Calif.).

For assay [5], the system named is AR mRNA. The assay can be described thus: AR mRNA expression by qPCR, LAPC4. Conditions: for AR mRNA levels (qPCR): LAPC4, 4 days. The procedure:
as §4

The test system of assay [6] is AR protein. The assay is described as follows: Immunoblot analysis of AR protein, LAPC4. The procedure:
as §3

Assay [7] has as its system LNCaP prostate cancer cells. The assay is described as follows: CyQUANT cell proliferation assay, LNCaP. The conditions noted are these: 10 to 50 μM, 4 days. The procedure: as §1, §2
Assay [8] concerns PC3 prostate cancer cell line. The assay can be described thus: Growth of androgen-independent PC3 cells. The conditions noted are these: 4 days, data not shown. The protocol: as §2

Entries after “also recorded” stand apart in the source; their conditions may differ.

With `CC1=C(C)C(=O)C(CC[C@](C)(O)CCC[C@H](C)CCC[C@H](C)CCCC(C)C)=C(C)C1=O` [ATQ, α-tocopherylquinone], the “reduction in R1881-induced PSA release compared to untreated control cells” value with PSA (10 μM) came out at 50%. Besides, the “decrease in PSA release compared to untreated controls” value in the assay on PSA (40 μM) came out at 4 fold. Also, the “R1881-induced PSA release / PSA levels in medium” value in the assay on PSA is “significantly reduced; also recorded: inhibited”. For the same compound, the “LAPC4 cell growth (CyQUANT)” value in [1] is reported as “dose-dependent decrease; also recorded: significantly decreased”. In addition, in the assay on LNCaP cells, the Cell viability entry was “significantly decreased”. Also, the “reduction in AR protein levels” value in the assay with AR protein [2] (30 μM) worked out at 4 fold; with AR protein [6] (LAPC4, 25 μM, 4 days) it was 4 fold. Besides, the AR protein levels result with AR protein [2] is “decreased”; in the assay on AR protein [6] (LAPC4, 4 days), “decreased”. Besides, the “decrease in AR mRNA levels” value came out at 2 fold with AR mRNA [3] (30 μM) and 2 fold in the assay with AR mRNA [5] (LAPC4, 30 μM, 4 days). For the same compound, the “AR mRNA levels (qPCR)” value in the assay with AR mRNA [3] and in the assay on AR mRNA [5] was “reduced levels” in each case. In assay [4], the “Androgen-induced (R1881) MMTV promoter luciferase activity” value is recorded as “inhibit; also recorded: significantly reduced”. The “LNCaP cell growth (relative growth, CyQUANT)” value in assay [7] is reported as “dose-dependent decrease; also recorded: significantly decreased”. In addition, the PC3 cell growth entry in assay [8] was “neither ATQ nor VE decreased the growth”.
For `Cc1c(C)c2c(c(C)c1O)CCC(C)(CCCC(C)CCCC(C)CCCC(C)C)O2` (racemic) [VE, dl-α-tocopherol, reference compound], the “R1881-induced PSA release / PSA levels in medium” value in the assay with PSA is recorded as “did not affect; also recorded: remained unchanged”. Besides, the “LAPC4 cell growth (CyQUANT)” value in [1] is “modest, but significant, decrease; also recorded: decreased slightly; also recorded: much less effective”. Also, the Cell viability result in the assay on LNCaP cells was “did not affect”. The “AR mRNA levels (qPCR)” value with AR mRNA [3] and in the assay with AR mRNA [5] was “did not affect” in each case. For the same compound, the “Androgen-induced (R1881) MMTV promoter luciferase activity” value in assay [4] was “significantly increased”. Further, in [8], the PC3 cell growth entry is “neither ATQ nor VE decreased the growth”.
